Columns and labels:
[1] = molecular target: recombinant human DPPI (Cathepsin C) (Homo sapiens (Human), UniProt P53634); test: Inhibition of human DPPI (Cathepsin C); assay type: biochemical; details: substrate Gly-Arg-AMC
Procedure, shortened: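 Recombinant human DPPI in MES buffer pH 6.0 (5 mM DTT, 0.1% BSA); fluorogenic substrate at 50 μM final, 30 min at room temperature, stopped with 1 μM Gly-Phe-DMK. Background-subtracted fluorescence expressed as percent of vehicle control; IC50 derived.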

[2] = molecular target: recombinant human Cathepsin K (Homo sapiens (Human), UniProt P43235); test: Inhibition of human Cathepsin K; assay type: biochemical; details: substrate Z-Gly-Pro-Arg-AMC
Procedure, shortened: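 Proenzyme activated in pH 3.5 sodium acetate for 30 min at room temperature. Enzyme (2 ng/μL final) preincubated 10 min with compound (0.1 nM–100 μM, 1% DMSO) in pH 5.5 acetate/EDTA/L-cysteine buffer, then reacted 60 min at room temperature with Z-Gly-Pro-Arg-AMC. Stopped with 1 μM E64; fluorescence Ex 360/Em 460 nm; IC50 from background-subtracted percent of vehicle control.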

[3] = Determination of metabolic stability with human liver microsomes; details: pooled human liver microsomes; for half-life at 1 μM: human, pH 7.6; for In vitro stability in human liver microsome incubations t½: 1 μM test compound, 37° C., NADPH

recombinant human DPPI (Cathepsin C), sequence (P53634 231-394): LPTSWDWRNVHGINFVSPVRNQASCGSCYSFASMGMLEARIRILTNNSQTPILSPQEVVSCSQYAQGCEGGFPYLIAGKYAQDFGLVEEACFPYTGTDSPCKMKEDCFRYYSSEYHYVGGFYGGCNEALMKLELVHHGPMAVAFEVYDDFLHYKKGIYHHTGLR
recombinant human DPPI (Cathepsin C), sequence (P53634 395-463): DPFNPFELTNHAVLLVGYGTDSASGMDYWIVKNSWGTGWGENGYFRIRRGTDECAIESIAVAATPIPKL
recombinant human DPPI (Cathepsin C), sequence (P53634 25-134): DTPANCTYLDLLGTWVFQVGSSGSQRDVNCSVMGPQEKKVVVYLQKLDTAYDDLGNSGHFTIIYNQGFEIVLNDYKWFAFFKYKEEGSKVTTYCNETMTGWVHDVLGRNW
recombinant human Cathepsin K, sequence (P43235 115-329): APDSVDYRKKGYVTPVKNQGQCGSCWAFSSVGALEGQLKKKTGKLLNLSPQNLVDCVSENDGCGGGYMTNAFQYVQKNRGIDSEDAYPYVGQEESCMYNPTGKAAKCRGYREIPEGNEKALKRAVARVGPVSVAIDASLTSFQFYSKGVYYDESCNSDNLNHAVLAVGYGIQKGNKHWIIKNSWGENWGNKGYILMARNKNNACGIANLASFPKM

IC50 [1] [nM]	IC50 [2] [nM]	half-life at 1 μM [3] [h]	In vitro stability in human liver microsome incubations t½ [3] [h]	SMILES
9	1700	> 2.17	–	CN1CCN(C(=O)c2ccc(-c3ccc(C[C@@H](C#N)NC(=O)[C@H]4N[C@@H]5CC[C@H]4C5)c(F)c3)cc2)CC1 [Example 185]
16	11700	1.47	–	CN1C(=O)C(C)(C)c2ccc(-c3ccc(C[C@@H](C#N)NC(=O)[C@H]4N[C@@H]5CC[C@H]4C5)c(F)c3)cc21 [Example 199]
16.5	3300	> 2.17	–	N#C[C@H](Cc1ccc(-c2ccc(C(=O)NC3CCOCC3)cc2)cc1F)NC(=O)[C@H]1N[C@@H]2CC[C@H]1C2 [Example 200]
2.2	1700	> 2.17	–	CS(=O)(=NC#N)c1cccc(-c2ccc(C[C@@H](C#N)NC(=O)[C@H]3N[C@@H]4CC[C@H]3C4)c(F)c2)c1 (stereo partly drawn) [Example 222]
1.8	5900	> 2.17	–	N#C[C@H](Cc1ccc(-c2csc(C(=O)N3CCOCC3)c2)cc1F)NC(=O)[C@H]1N[C@@H]2CC[C@H]1C2 [Example 230]
4.7	3000	> 2.17	–	N#C[C@H](Cc1ccc(-c2csc(C(=O)NC3CCOCC3)c2)cc1F)NC(=O)[C@H]1N[C@@H]2CC[C@H]1C2 [Example 235]
1.6	1700	> 2.17	–	N#C[C@H](Cc1ccc(-c2ccc(C(N)=O)s2)cc1F)NC(=O)[C@H]1N[C@@H]2CC[C@H]1C2 [Example 236]
14.3	9300	1.83	–	N#C[C@H](Cc1ccc(-c2ccc(C(=O)N3CCN4CCOCC4C3)o2)cc1F)NC(=O)[C@H]1N[C@@H]2CC[C@H]1C2 (stereo partly drawn) [Example 238]
3.4	2000	> 2.17	–	N#C[C@H](Cc1ccc(-c2cc(C(N)=O)co2)cc1F)NC(=O)[C@H]1N[C@@H]2CC[C@H]1C2 [Example 239]
6.8	2500	1.4	–	CN1CCN(C(=O)c2coc(-c3ccc(C[C@@H](C#N)NC(=O)[C@H]4N[C@@H]5CC[C@H]4C5)c(F)c3)c2)CC1 [Example 241]
10.9	2500	> 2.17	–	CCNC(=O)c1coc(-c2ccc(C[C@@H](C#N)NC(=O)[C@H]3N[C@@H]4CC[C@H]3C4)c(F)c2)c1 [Example 242]
3.7	2000	1.53	–	N#C[C@H](Cc1ccc(-c2cccc(C(N)=O)c2)cc1F)NC(=O)[C@H]1N[C@@H]2CC[C@H]1C2 [Example 244]
5.9	1200	> 2.17	–	CN1CCN(C(=O)c2cccc(-c3ccc(C[C@@H](C#N)NC(=O)[C@H]4N[C@@H]5CC[C@H]4C5)c(F)c3)c2)CC1 [Example 245]
11	5700	> 2.17	–	CNc1nc2cc(-c3ccc(C[C@@H](C#N)NC(=O)[C@H]4N[C@@H]5CC[C@H]4C5)c(F)c3)ccc2n1C [Example 253]
2	4500	> 2.17	–	Cn1cc(-c2ccc(C[C@@H](C#N)NC(=O)[C@H]3N[C@@H]4CC[C@H]3C4)c(F)c2)ccc1=O [Example 254]
6	3700	> 2.17	–	CS(C)(=O)=Nc1cccc(-c2ccc(C[C@@H](C#N)NC(=O)[C@H]3N[C@@H]4CC[C@H]3C4)c(F)c2)c1 [Example 259]
3.5	3900	> 2.17	–	N#C[C@H](Cc1ccc(-c2cnn(C[C@H]3CCCO3)c2)cc1F)NC(=O)[C@H]1N[C@@H]2CC[C@H]1C2 [Example 260]
4.2	3800	> 2.17	–	N#C[C@H](Cc1ccc(-c2cnn(C[C@@H]3CCCO3)c2)cc1F)NC(=O)[C@H]1N[C@@H]2CC[C@H]1C2 [Example 261]
6.4	2800	> 2	–	N#C[C@H](Cc1ccc(-c2cnn(C[C@@H]3CCOC3)c2)cc1F)NC(=O)[C@H]1N[C@@H]2CC[C@H]1C2 [Example 262]
11.8	2100	> 2.17	–	CS(=O)(=NC#N)c1ccc(-c2ccc(C[C@@H](C#N)NC(=O)[C@H]3N[C@@H]4CC[C@H]3C4)c(F)c2)cc1 (stereo partly drawn) [Example 263]
6.5	3500	> 2.08	–	C[S+]([O-])c1ccc(-c2ccc(C[C@@H](C#N)NC(=O)[C@H]3N[C@@H]4CC[C@H]3C4)c(F)c2)cc1 (stereo partly drawn) [Example 274]
3.3	1900	> 2.17	–	N#C[C@H](Cc1ccc(C2=CCN3CCOCC3C2)cc1F)NC(=O)[C@H]1N[C@@H]2CC[C@H]1C2 (stereo partly drawn) [Example 281]
2.3	2200	> 2.17	–	N#C[C@H](Cc1ccc(-c2ccc(C(=O)N3CCOCC3)o2)cc1F)NC(=O)[C@H]1N[C@@H]2CC[C@H]1C2 [Example 288]

Further lines, the molecule ahead of its results:

SMILES	IC50 [1] [nM]	IC50 [2] [nM]	half-life at 1 μM [3] [h]	In vitro stability in human liver microsome incubations t½ [3] [h]
N#C[C@H](Cc1ccc(N2CCN(CCO)CC2)cc1F)NC(=O)[C@H]1N[C@@H]2CC[C@H]1C2 [Example 190]	10.9	3700	> 2.17	–
N#C[C@H](Cc1ccc(N2CCC(N3CCOCC3)CC2)cc1F)NC(=O)[C@H]1N[C@@H]2CC[C@H]1C2 [Example 193]	12.3	2200	> 2.17	–
CCN1CCC(c2ccc(C[C@@H](C#N)NC(=O)[C@H]3N[C@@H]4CC[C@H]3C4)c(F)c2)CC1 [Example 201]	20.1	2500	> 2.17	–
N#C[C@H](Cc1ccc(-c2cnn(CC3CCOCC3)c2)c(F)c1F)NC(=O)[C@H]1N[C@@H]2CC[C@H]1C2 [Example 218]	18.9	26000	> 2.17	–
CC(=O)N1CCN(C(=O)c2cc(-c3ccc(C[C@@H](C#N)NC(=O)[C@H]4N[C@@H]5CC[C@H]4C5)c(F)c3)cs2)CC1 [Example 231]	2.2	2400	> 2.17	–
CN1CCN(C(=O)c2cc(-c3ccc(C[C@@H](C#N)NC(=O)[C@H]4N[C@@H]5CC[C@H]4C5)c(F)c3)cs2)CC1=O [Example 233]	2.2	3000	> 2.17	–
N#C[C@H](Cc1ccc(-c2cc(C(=O)N3CCn4nccc4C3)co2)cc1F)NC(=O)[C@H]1N[C@@H]2CC[C@H]1C2 [Example 240]	6.1	9400	1.83	–
CN1CCCN(c2ccc(C[C@@H](C#N)NC(=O)[C@H]3N[C@@H]4CC[C@H]3C4)c(F)c2)CC1 [Example 247]	8.4	4500	> 2.17	–
N#C[C@H](Cc1ccc(N2CCN3CCOC[C@@H]3C2)cc1F)NC(=O)[C@H]1N[C@@H]2CC[C@H]1C2 [Example 249]	6.3	3600	> 2.17	–
N#C[C@H](Cc1ccc(N2CCN3CCOC[C@H]3C2)cc1F)NC(=O)[C@H]1N[C@@H]2CC[C@H]1C2 [Example 250]	4.2	3100	> 2.17	–
CS(=O)(=O)c1ccc(-c2ccc(C[C@@H](C#N)NC(=O)[C@H]3N[C@@H]4CC[C@H]3C4)c(F)c2)cc1OCC(F)F [Example 252]	3.8	3300	–	2.17
CC(C)N1CCCN(c2ccc(C[C@@H](C#N)NC(=O)[C@H]3N[C@@H]4CC[C@H]3C4)c(F)c2)CC1 [Example 267]	10.5	4700	> 2.17	–
CO[C@@H]1C[C@@H]2CN(c3ccc(C[C@@H](C#N)NC(=O)[C@H]4N[C@@H]5CC[C@H]4C5)c(F)c3)CCN2C1 [Example 269]	9.4	1700	> 2.17	–
N#C[C@H](Cc1ccc(N2CCN3CCC[C@H]3C2)cc1F)NC(=O)[C@H]1N[C@@H]2CC[C@H]1C2 [Example 270]	6.3	6100	> 2.17	–
CS(=O)(=O)c1cc(OCC(F)(F)F)cc(-c2ccc(C[C@@H](C#N)NC(=O)[C@H]3N[C@@H]4CC[C@H]3C4)c(F)c2)c1 [Example 276]	14.1	5500	–	2.17
N#CC(Cc1cc2c(=O)[nH]c3cc(F)ccc3c2cc1F)NC(=O)[C@H]1N[C@@H]2CC[C@H]1C2 (stereo partly drawn) [Example 293]	1.3	2700	> 2.17	–
N#CC(Cc1cc2c(=O)[nH]c3ccccc3c2cc1F)NC(=O)[C@H]1N[C@@H]2CC[C@H]1C2 (stereo partly drawn) [Example 294]	1.6	2200	> 2.17	–
N#CC(Cc1cc2c(=O)[nH]c3ccc(F)cc3c2cc1F)NC(=O)[C@H]1N[C@@H]2CC[C@H]1C2 (stereo partly drawn) [Example 295]	2.1	4700	> 2.17	–
N#CC(Cc1ccc2c(c1)c(=O)[nH]c1c(F)c(F)c(F)cc12)NC(=O)[C@H]1N[C@@H]2CC[C@H]1C2 (stereo partly drawn) [Example 296]	2.9	> 30000	> 2.17	–
N#Cc1ccc2[nH]c(=O)c3cc(CC(C#N)NC(=O)[C@H]4N[C@@H]5CC[C@H]4C5)ccc3c2c1 (stereo partly drawn) [Example 298]	3.2	17600	1.75	–
N#CC(Cc1ccc2c(c1)c(=O)[nH]c1c(F)c(F)ccc12)NC(=O)[C@H]1N[C@@H]2CC[C@H]1C2 (stereo partly drawn) [Example 300]	3.8	23100	> 2.17	–
